Data set [1] deals with T1, LHRH receptor (Rattus norvegicus, UniProt P30969).
T1 construct: rat pituitary cells which naturally strongly express the LHRH receptor; from tissue; host or cells: rat pituitary cells (membrane preparation)
T1 sequence (P30969 1-327): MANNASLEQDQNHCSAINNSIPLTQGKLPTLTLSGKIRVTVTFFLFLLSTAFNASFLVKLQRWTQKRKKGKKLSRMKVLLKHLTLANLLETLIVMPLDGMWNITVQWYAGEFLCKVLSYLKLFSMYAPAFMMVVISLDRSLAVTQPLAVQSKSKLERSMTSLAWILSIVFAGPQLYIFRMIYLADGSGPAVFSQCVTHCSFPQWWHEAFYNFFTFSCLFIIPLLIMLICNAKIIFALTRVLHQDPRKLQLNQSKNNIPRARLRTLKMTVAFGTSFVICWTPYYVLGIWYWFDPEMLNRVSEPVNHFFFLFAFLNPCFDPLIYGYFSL
The data set is described as follows: LHRH receptor-ligand binding assay (membrane preparations from rat pituitary cells). To be noted: competition with 0.05 nM [125I][D-Trp6]-LHRH, 90 min, 4° C., rat pituitary membranes. The procedure: Heterologous competition experiments were carried out using membrane preparations from rat pituitary cells which naturally strongly express the LHRH receptor. The ligand used in this case was [^125I][D-Trp^6]-LHRH in a concentration of 0.05 nM. Unlabeled [D-Trp^6]-LHRH was used in a concentration of 1 μM, or the test substance was used in the desired concentration, for competition. After an incubation time of 90 minutes at 4° C., the bound ligand was measured by scintillation (Halmos et al., Proc. Natl. Acad. Sci. USA, 1996, 93, 2398).
The result obtained was the percentage proportion of bound ligand in the presence of the competitor related to the specifically bound proportion of the control (see result for selected compounds in Table 3). EC50 values were calculated by nonlinear regression analysis of the competition plots.

A further data set concerns castrated rats. Nature of the data set: LH concentration suppression in the plasma of castrated rats. The class given is in vivo, rat. To be noted: 19 mg/kg oral in Solutol HS15/1,2-propane-diol (3:1). The procedure:
The LH concentration in the plasma of castrated rats was measured using the rat luteinizing hormone (rLH) enzyme immunoassay (EIA) system ELISA (RPN 2562) from Amersham Pharmacia Biotech or of LH RIA-AH R002 rats; from Biocode-Hycel, Liege, Belgium. All other chemicals used were from commercial sources in the highest purity available.
10 days before the start of the test, male Sprague Dawley rats (Harlan Winkelmann, Germany) weighing 190-220 g were anesthetized with ether and castrated and provided with a silicone catheter for permanent blood sampling.
At the start of the test, before administration of the substance, blood samples were taken and the LH level determined. The substance was then administered orally in the desired concentration. The number of animals used in each group was 8. At the stated times, further blood samples were taken. The blood was collected in heparinized sample tubes on ice, and the plasma was obtained by centrifugation at 3000 g for 10 minutes. The plasma samples were stored at −20° C. until the LH concentration was measured by ELISA or RIA. The LH concentration was determined by an ELISA or RIA in duplicate determination in accordance with the manufacturer's (Amersham Pharmacia Biotech; Biocode-Hycel) instructions.
All the other data points for each individual animal were calculated as relative concentration compared with the LH concentration before treatment.

The next data set has as its target T2, NK1 (h) (Homo sapiens, UniProt P25103).
T2 construct: Cerep Assay 826-1h
The data set is described as follows: NK1 receptor-ligand binding assay (Cerep). To be noted: for nH: Hill coefficient of competition plot; for IC50 / Ki: ligand [Sar9, Met(O2)11]-SP. The procedure:
(§1) Receptor affinities (IC50 values) of the compounds of the invention of the general formulae (I, Ia and Ib) were measured as described by E. Heuillet et al., J. Neurochem., 60: 868-876 (1993) and D. Aharony et al. Mol. Pharmacol, 44: 356-363 (1993) commercially by Cerep (Assay 826-1h on page 67 and Assay 826-2h on page 68 of the 2005 catalogue).
(§2) FIGS. 8-11 show competition plots measured in the NK1 and NK2 receptor-ligand binding assays with [Sar^9, Met(O2)^11]-SP for NK1 and [Nle^10]-NKA(4-10) for NK2, and the selected substances (68 and 76).

In another data set the target is T3, NK2 (h) (Homo sapiens, UniProt P21452).
T3 construct: Cerep Assay 826-2h
T3 sequence (P21452 1-398): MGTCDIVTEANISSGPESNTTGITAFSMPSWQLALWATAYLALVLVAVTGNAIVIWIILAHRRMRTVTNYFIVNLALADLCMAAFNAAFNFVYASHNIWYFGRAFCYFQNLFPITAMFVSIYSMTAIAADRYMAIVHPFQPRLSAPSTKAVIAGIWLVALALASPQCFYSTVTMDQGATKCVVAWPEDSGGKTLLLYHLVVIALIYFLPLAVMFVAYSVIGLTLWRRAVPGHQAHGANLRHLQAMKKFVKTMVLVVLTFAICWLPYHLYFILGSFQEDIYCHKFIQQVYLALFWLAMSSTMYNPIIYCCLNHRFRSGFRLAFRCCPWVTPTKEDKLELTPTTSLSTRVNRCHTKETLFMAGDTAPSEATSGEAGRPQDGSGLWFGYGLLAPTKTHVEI
The data set is described as follows: NK2 receptor-ligand binding assay (Cerep). The following applies: for nH: Hill coefficient of competition plot; for IC50 / Ki: ligand [Nle10]-NKA(4-10). The procedure: as §1, §2

The nature of data set [2]: Metabolic stability in rat liver microsomes. The class given is in vitro ADME. The following applies: 37° C., NADPH. The procedure: (§3) The metabolic stability in relation to liver microsomes (species human, rat) was determined in accordance with the following description: the substances were incubated at a test concentration of 1 […] An HPLC MS/MS method was subsequently used to quantify the unmetabolized amount of starting compound relative to 100%.

Data set [3] is described as follows: Metabolic stability in human liver microsomes. The following applies: 37° C., NADPH. The class given is in vitro ADME. The procedure: as §3
A general note: Liver microsomes are a subcellular fraction often used to study metabolism.

Data set [4] concerns the target LHRH receptor (Homo sapiens, UniProt P30968). The following applies: prior art, N. Cho et al. J. Med. Chem. 41, 4190-4195 (1998); cited from earlier work.
For data set [5] the following is noted: in vivo; cited from earlier work.
A short description of data set [6]: Saturation solubility in water. The class given is physicochemical. The following applies: water, thermodynamic from solid; maximum of 1% DMSO added, HPLC UV. The procedure: The saturation solubility in water was determined in accordance with the following description: to initiate dissolving of the substances and to improve the wetting of the samples, a maximum of 1% DMSO was added. The content was checked by using an HPLC UV method.

Bounds are passed on as bounds.

T2 sequence (P25103 whole entry): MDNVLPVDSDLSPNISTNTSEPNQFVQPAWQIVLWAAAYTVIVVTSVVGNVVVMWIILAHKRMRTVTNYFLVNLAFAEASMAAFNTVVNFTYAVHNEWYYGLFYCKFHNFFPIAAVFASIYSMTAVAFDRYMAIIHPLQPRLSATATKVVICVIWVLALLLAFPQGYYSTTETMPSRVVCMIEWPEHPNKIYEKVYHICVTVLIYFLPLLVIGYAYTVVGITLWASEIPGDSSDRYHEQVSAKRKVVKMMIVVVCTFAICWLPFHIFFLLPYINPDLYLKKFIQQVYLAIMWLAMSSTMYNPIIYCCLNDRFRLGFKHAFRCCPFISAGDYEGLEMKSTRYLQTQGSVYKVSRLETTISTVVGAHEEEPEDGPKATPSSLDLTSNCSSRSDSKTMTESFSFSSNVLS
Chain of LHRH receptor (Homo sapiens, UniProt P30968) (P30968 whole entry): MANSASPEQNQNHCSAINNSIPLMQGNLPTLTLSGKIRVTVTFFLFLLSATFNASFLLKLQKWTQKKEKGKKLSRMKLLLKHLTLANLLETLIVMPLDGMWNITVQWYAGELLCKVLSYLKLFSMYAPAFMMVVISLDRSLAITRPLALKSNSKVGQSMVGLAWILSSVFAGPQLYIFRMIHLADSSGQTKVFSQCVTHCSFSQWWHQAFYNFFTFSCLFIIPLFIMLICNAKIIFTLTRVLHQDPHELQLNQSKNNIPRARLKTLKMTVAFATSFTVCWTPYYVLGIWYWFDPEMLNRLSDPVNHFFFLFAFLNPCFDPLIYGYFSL

At LHRH receptor [1], `CCC(C)[C@H](NC(=O)Cc1ccccc1F)C(=O)N[C@]1(C(=O)N[C@H](C(N)=S)C(C)CC)CCc2[nH]c3c(Cl)cc(F)cc3c2C1` (stereo partly drawn) [Compound 68, (R)-8-chloro-6-fluoro-3-{(S)-2-[2-(2-fluorophenyl)acetylamino]-3-methylpentanoylamino}-2,3,4,9-tetrahydro-1H-carbazole-3-carboxylic acid ((S)-2-methyl-1-thiocarbamoylbutyl)amide] yielded an EC50 of 1 nM. Also, the “Relative LH concentration (%) (averages ± SEM compared with the concentration before treatment)” value with castrated rats (time 0 h) was 95.0 ± 9.3%; in the data set on castrated rats (time +4 h), 17.4 ± 3.3%; in the data set with castrated rats (time +6 h), 16.0 ± 1.5%; in the data set on castrated rats (time +8 h) it was 12.9 ± 1.0%; with castrated rats (time +12 h) it was 16.0 ± 2.6%; in the data set with castrated rats (time +24 h), 65.7 ± 10.8%. The figures for the “Relative LH concentration (%) (averages ± SEM compared with the concentration before treatment)” value with castrated rats (time +30 h) and with castrated rats (time −24 h (before treatment)) were 78.1 ± 7.7% and 105.4 ± 12.7%, respectively. Moreover, the nH at NK1 (h) is 2.0; at NK2 (h), 3.8. For the same compound, the IC50 amounted to 1400 nM on NK1 (h) and 1600 nM at NK2 (h). Besides, the Ki turned out to be 640 nM at NK1 (h) and 850 nM on NK2 (h). The recovery at 10 μM is 80% in [2] and 75% in data set [3].

In turn, `CCC(C)[C@H](NC(=O)Cc1ccccc1F)C(=O)N[C@]1(C(=O)N[C@H](C(N)=S)C(C)CC)CCc2[nH]c3c(C(F)(F)F)cccc3c2C1` (stereo partly drawn) [Compound 76, (R)-3-{(S)-2-[2-(2-fluorophenyl)acetylamino]-3-methylpentanoylamino}-8-trifluoromethyl-2,3,4,9-tetrahydro-1H-carbazole-3-carboxylic acid ((S)-2-methyl-1-thiocarbamoylbutyl)amide] gave an EC50 at LHRH receptor [1] of 0.27 nM. For the same compound, the nH on NK1 (h) and on NK2 (h) was 2.3 throughout. Besides, the values for the IC50 at NK1 (h) and on NK2 (h) were 1900 nM and 1500 nM, respectively. Besides, the Ki at NK1 (h) turned out to be 840 nM; at NK2 (h), 810 nM. Further, the recovery at 10 μM was 69% in [2] and 84% in [3].

As to `CC(C)OC(=O)c1cn(Cc2c(F)cccc2F)c2sc(-c3ccc(NC(=O)C(C)C)cc3)c(CN(C)Cc3ccccc3)c2c1=O` [Compound T-98475], the receptor affinity entry on LHRH receptor [4] is “high”. In addition, the bioavailability result in [5] is given as “low”.

Turning to `CCC(C)[C@H](NC(=O)[C@@]1(NC(=O)[C@@H](NC(=O)OCc2ccccc2)C(C)CC)CCc2[nH]c3c(OC)cccc3c2C1)C(N)=O` (stereo partly drawn) [Example 294 from WO 03/051837 A2, Benzyl {(S)-1-[(R)-3-((S)-1-carbamoyl-2-methylbutylcarbamoyl)-8-methoxy-2,3,4,9-tetrahydro-1H-carbazol-3-ylcarbamoyl]-2-methylbutyl]carbamate, reference compound], the recovery at 1 μM in [2] was found to be 5%; in data set [3], 0%.

As for `CCC(C)[C@H](NC(=O)[C@@]1(NC(=O)[C@@H](NC(=O)OCc2ccccc2)C(C)CC)CCc2[nH]c3c(Cl)cc(Cl)cc3c2C1)C(N)=O` (stereo partly drawn) [Example 295 from WO 03/051837 A2, Benzyl {(S)-1-[(R)-3-((S)-1-carbamoyl-2-methylbutylcarbamoyl)-6,8-dichloro-2,3,4,9-tetrahydro-1H-carbazol-3-ylcarbamoyl]-2-methylbutyl]carbamate, reference compound], the solubility in data set [6] was less than 0.05 µg/mL. Also, the recovery at 1 μM in [2] and in data set [3] was 0% in each case.

Usually EC50 stands for the concentration that produces a half-maximal response. Usually IC50 stands for the concentration that inhibits the measured activity by half. High values mean weaker potency in that assay, low ones greater potency in that assay. Broadly, the Ki is the equilibrium dissociation constant of an inhibitor or competing ligand from its target. Higher therefore signals weaker binding. The solubility is the concentration that dissolves in the medium under given conditions. Read a low solubility as little dissolved substance.
